Among the test systems are 786-0; CAKI-1; CCRF-CEM; Hs-578T; LOX IMVI; M14; MDA-MB-231; MDA-N; MOLT-4; NCI/ADR-RES; OVCAR-3; OVCAR-8; RPMI-8226; RXF 393; SF-268; SK-MEL-28; SR; UACC-62; A498.
Common to all, as to assay: inhibition of tumour cell growth, NCI panel, 48 h

We go through twelve molecules from ChEMBL document CHEMBL1201862, “PubChem BioAssay data set” (2004).

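Cultured in 96-well plates, cells were exposed to test compound for 48 hours across five concentrations. At the GI50, growth is halved.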 The source made the active and inactive calls. No stated cut-off is given here; in the data, active = GI50 up to about 1.1 µM and inactive = higher.

`COc1ccc(C2Oc3ccc(Cl)cc3C=C2[N+](=O)[O-])cc1` (centres undefined): the GI50 in the assay on 786-0, with CAKI-1, with CCRF-CEM, with Hs-578T, in the assay on LOX IMVI and in the assay on M14 was > 100 µM (inactive) in each case. Further, the GI50 in the assay on MDA-MB-231, with MDA-N, in the assay with MOLT-4, in the assay on NCI/ADR-RES, in the assay on OVCAR-3 and in the assay with OVCAR-8 was > 100 µM (inactive) throughout. The GI50 with RPMI-8226, in the assay on RXF 393, in the assay on SF-268, in the assay on SK-MEL-28, in the assay with SR and in the assay with UACC-62 was > 100 µM (inactive) in each case.

On to `COc1cccc(C2c3cc4c(cc3OC(Nc3ccccc3)C2C)OCO4)c1OC` (centres undefined), for which the GI50 in the assay on 786-0 was 10.6 µM (inactive); with A498 it was 11.5 µM (inactive); in the assay with CAKI-1, 3.87 µM (inactive); with CCRF-CEM, 2.88 µM (inactive); in the assay on Hs-578T, 3.08 µM (inactive); in the assay on LOX IMVI, 3.77 µM (inactive). Moreover, the GI50 in the assay with M14 was 67.6 µM (inactive); in the assay on MDA-MB-231, 13.7 µM (inactive); in the assay with MDA-N, 34.8 µM (inactive); in the assay on MOLT-4 it was 1.81 µM (inactive); in the assay on OVCAR-3 it was 5.36 µM (inactive); in the assay on OVCAR-8 it was 16.3 µM (inactive). The GI50 in the assay on RPMI-8226 was 1.64 µM (inactive); in the assay on RXF 393, 3.66 µM (inactive); in the assay on SF-268, 8.73 µM (inactive); with SK-MEL-28 it was 41.3 µM (inactive); with SR, 0.809 µM (active); in the assay with UACC-62, 9.55 µM (inactive).

Consider `Cc1nc(-c2cc3ccccc3oc2=O)cs1`, for which the GI50 was 34 µM (inactive) with 786-0; > 100 µM (inactive) in the assay with CAKI-1; > 100 µM (inactive) in the assay with CCRF-CEM; 18.4 µM (inactive) with Hs-578T; > 100 µM (inactive) in the assay with LOX IMVI; > 100 µM (inactive) in the assay on M14. The GI50 in the assay with MDA-MB-231 is 25.1 µM (inactive); in the assay on MDA-N, > 100 µM (inactive); with MOLT-4, > 100 µM (inactive); in the assay with NCI/ADR-RES, 78.5 µM (inactive); with OVCAR-8, 47 µM (inactive); with RPMI-8226 it was > 100 µM (inactive). For the same molecule, the GI50 with RXF 393 is 38.2 µM (inactive); with SF-268, 42.9 µM (inactive); in the assay with SK-MEL-28 it was > 100 µM (inactive); in the assay with SR it was 59 µM (inactive); in the assay with UACC-62 it was 31.3 µM (inactive).

For the molecule `COc1cc(-c2[o+]c3cc(O)cc(OC4OC(CO)C(O)C(O)C4O)c3cc2OC2OC(CO)C(O)C(O)C2O)cc(OC)c1O` (centres undefined), the GI50 with 786-0 is > 100 µM (inactive); in the assay on A498, > 100 µM (inactive); in the assay with CAKI-1 it was > 100 µM (inactive); in the assay with CCRF-CEM it was 70.1 µM (inactive); in the assay on Hs-578T, > 100 µM (inactive); with LOX IMVI, > 100 µM (inactive). In addition, the GI50 in the assay with M14, in the assay on MDA-MB-231, with MDA-N, in the assay on MOLT-4, in the assay on OVCAR-3 and in the assay on OVCAR-8 was > 100 µM (inactive) throughout. Moreover, the GI50 in the assay on RPMI-8226, with RXF 393, in the assay with SF-268, with SK-MEL-28, in the assay with SR and in the assay with UACC-62 was > 100 µM (inactive) throughout.

As for `COc1cccc(C2CC(=O)c3cccn32)c1` (centres undefined), the GI50 is > 100 µM (inactive) with 786-0; > 100 µM (inactive) with A498; > 100 µM (inactive) in the assay with CAKI-1; > 100 µM (inactive) in the assay on CCRF-CEM; 23.4 µM (inactive) with Hs-578T; > 100 µM (inactive) in the assay on LOX IMVI. The GI50 in the assay on M14 is > 100 µM (inactive); with MDA-MB-231, 82.6 µM (inactive); in the assay with MOLT-4 it was 71.8 µM (inactive); in the assay with NCI/ADR-RES it was > 100 µM (inactive); in the assay on OVCAR-3, > 100 µM (inactive); with OVCAR-8, > 100 µM (inactive). Also, the GI50 in the assay on RPMI-8226 was > 100 µM (inactive); with RXF 393 it was > 100 µM (inactive); in the assay with SF-268, 69.3 µM (inactive); with SK-MEL-28 it was > 100 µM (inactive); in the assay on SR, > 100 µM (inactive); with UACC-62 it was > 100 µM (inactive).

Consider `CCCC(CCC(N)=O)(CCC(N)=O)[N+](=O)[O-]`, for which the GI50 in the assay with 786-0, in the assay with CAKI-1, with CCRF-CEM, with Hs-578T, in the assay on M14 and in the assay on MDA-MB-231 was > 100 µM (inactive) in each case. For the same molecule, the GI50 was > 100 µM (inactive) in the assay on MDA-N; > 100 µM (inactive) in the assay on MOLT-4; > 100 µM (inactive) in the assay on NCI/ADR-RES; > 100 µM (inactive) with OVCAR-8; > 100 µM (inactive) in the assay on RPMI-8226; 69.3 µM (inactive) in the assay on RXF 393. Further, the GI50 with SF-268, with SR and in the assay on UACC-62 was > 100 µM (inactive) each time.

As to `CCOc1c(Br)cc(Br)cc1C=C(C#N)C#N`, the GI50 in the assay with 786-0 is 7.01 µM (inactive); in the assay on A498, 1.49 µM (inactive); with CCRF-CEM, 1.18 µM (inactive); with Hs-578T, 3.67 µM (inactive); in the assay on LOX IMVI, 1.66 µM (inactive); with MDA-N it was 1.83 µM (inactive). For the same molecule, the GI50 in the assay on MOLT-4 was 2.05 µM (inactive); in the assay on NCI/ADR-RES, 1.27 µM (inactive); in the assay with OVCAR-3 it was > 10 µM (inactive); in the assay with OVCAR-8 it was 3.42 µM (inactive); with RPMI-8226 it was 0.942 µM (active); with RXF 393 it was > 10 µM (inactive). Moreover, the GI50 in the assay with SF-268 was 5.82 µM (inactive); with SK-MEL-28, 8.26 µM (inactive); in the assay on SR, 0.916 µM (active); in the assay on UACC-62, 6.08 µM (inactive).

For the molecule `CC[C@@H]1CC[C@@H]2[C@H](CC[C@]3(C)[C@@H](OC(C)=O)CC[C@@H]23)[C@H]1C(=O)OC`, the GI50 in the assay on 786-0 is 23.4 µM (inactive); in the assay on A498, > 100 µM (inactive); in the assay on CAKI-1 it was 35.3 µM (inactive); in the assay on CCRF-CEM it was 22.1 µM (inactive); in the assay with Hs-578T, 46.1 µM (inactive); in the assay on LOX IMVI, 20 µM (inactive). The GI50 in the assay with M14 is 19.6 µM (inactive); in the assay with MDA-MB-231, 20.6 µM (inactive); in the assay with MDA-N, 19.5 µM (inactive); in the assay with MOLT-4 it was 19.5 µM (inactive); with NCI/ADR-RES it was 26.9 µM (inactive); in the assay with OVCAR-3, 19.4 µM (inactive). Besides, the GI50 in the assay on OVCAR-8 is 27.9 µM (inactive); in the assay with RPMI-8226, 19.6 µM (inactive); in the assay with RXF 393 it was 24.6 µM (inactive); in the assay on SF-268 it was 23.4 µM (inactive); with SK-MEL-28, 32.2 µM (inactive); in the assay on UACC-62, 20.1 µM (inactive).

On to `O=C1N/C(=N/N=C/c2c[nH]c3ccccc23)N/C1=C\c1c[nH]c2ccccc12`, for which the GI50 is 17.8 µM (inactive) with 786-0; 12.7 µM (inactive) with A498; 31 µM (inactive) with CAKI-1; 7.74 µM (inactive) in the assay on CCRF-CEM; 18.7 µM (inactive) with Hs-578T; 17.4 µM (inactive) in the assay with LOX IMVI. The GI50 in the assay with M14 is 29 µM (inactive); in the assay on MDA-MB-231, 20 µM (inactive); in the assay on MDA-N it was 27.6 µM (inactive); in the assay on MOLT-4 it was 10.5 µM (inactive); with NCI/ADR-RES, 27.3 µM (inactive); with OVCAR-3, 14.7 µM (inactive). Moreover, the GI50 with OVCAR-8 is 15.8 µM (inactive); in the assay with RPMI-8226 it was 12.9 µM (inactive); with RXF 393, 28.6 µM (inactive); in the assay with SF-268 it was 20.4 µM (inactive); in the assay on SK-MEL-28, 22.1 µM (inactive); in the assay with UACC-62, 19.7 µM (inactive).

As to `COCc1nc2c(OC)c(-c3nc4ccc(N5CCN(C)CC5)nc4[nH]3)cc(OC)c2n1C`, the GI50 in the assay on 786-0 was 43.7 µM (inactive); in the assay on CAKI-1, 40.7 µM (inactive); in the assay with CCRF-CEM, 21 µM (inactive); with Hs-578T, 55.3 µM (inactive); with LOX IMVI, 19.1 µM (inactive); with M14, 21.3 µM (inactive). Also, the GI50 in the assay on MDA-MB-231 is 17.7 µM (inactive); with MDA-N it was 37.7 µM (inactive); in the assay on MOLT-4, 16.4 µM (inactive); with NCI/ADR-RES, 55 µM (inactive); in the assay on OVCAR-3, 53.6 µM (inactive); with OVCAR-8, 33.9 µM (inactive). Besides, the GI50 in the assay on RPMI-8226 is 18.7 µM (inactive); in the assay with RXF 393, 20.3 µM (inactive); in the assay with SF-268, 45.2 µM (inactive); in the assay with SK-MEL-28, 23.4 µM (inactive); in the assay on UACC-62, 20.7 µM (inactive).

In the case of `CSc1nc(=O)cnn1C`, the GI50 with 786-0, in the assay with CAKI-1, with CCRF-CEM, in the assay with Hs-578T, in the assay on M14 and with MDA-MB-231 was > 100 µM (inactive) each time. Also, the GI50 with MDA-N, in the assay on MOLT-4, in the assay with NCI/ADR-RES, in the assay with OVCAR-3, in the assay on OVCAR-8 and in the assay on RPMI-8226 was > 100 µM (inactive) in each case. Also, the GI50 with RXF 393, in the assay on SF-268, with SK-MEL-28, in the assay on SR and with UACC-62 was > 100 µM (inactive) each time.

With `CC(=O)Nc1ccc(/N=N\c2c(O)c(S(=O)(=O)O)cc3cc(S(=O)(=O)O)ccc23)cc1`, the GI50 with 786-0, in the assay on CAKI-1, in the assay with Hs-578T, in the assay with M14, in the assay with MDA-MB-231 and in the assay on MDA-N was > 100 µM (inactive) throughout. Also, the GI50 in the assay on NCI/ADR-RES, in the assay on OVCAR-3, in the assay on OVCAR-8, in the assay with RPMI-8226, with RXF 393 and in the assay on SF-268 was > 100 µM (inactive) in each case. The GI50 in the assay on SK-MEL-28 and in the assay with UACC-62 was > 100 µM (inactive) each time.
